For one test, the target named is T1, Axl (Homo sapiens, UniProt P30530).
T1 sequence (P30530 26-894): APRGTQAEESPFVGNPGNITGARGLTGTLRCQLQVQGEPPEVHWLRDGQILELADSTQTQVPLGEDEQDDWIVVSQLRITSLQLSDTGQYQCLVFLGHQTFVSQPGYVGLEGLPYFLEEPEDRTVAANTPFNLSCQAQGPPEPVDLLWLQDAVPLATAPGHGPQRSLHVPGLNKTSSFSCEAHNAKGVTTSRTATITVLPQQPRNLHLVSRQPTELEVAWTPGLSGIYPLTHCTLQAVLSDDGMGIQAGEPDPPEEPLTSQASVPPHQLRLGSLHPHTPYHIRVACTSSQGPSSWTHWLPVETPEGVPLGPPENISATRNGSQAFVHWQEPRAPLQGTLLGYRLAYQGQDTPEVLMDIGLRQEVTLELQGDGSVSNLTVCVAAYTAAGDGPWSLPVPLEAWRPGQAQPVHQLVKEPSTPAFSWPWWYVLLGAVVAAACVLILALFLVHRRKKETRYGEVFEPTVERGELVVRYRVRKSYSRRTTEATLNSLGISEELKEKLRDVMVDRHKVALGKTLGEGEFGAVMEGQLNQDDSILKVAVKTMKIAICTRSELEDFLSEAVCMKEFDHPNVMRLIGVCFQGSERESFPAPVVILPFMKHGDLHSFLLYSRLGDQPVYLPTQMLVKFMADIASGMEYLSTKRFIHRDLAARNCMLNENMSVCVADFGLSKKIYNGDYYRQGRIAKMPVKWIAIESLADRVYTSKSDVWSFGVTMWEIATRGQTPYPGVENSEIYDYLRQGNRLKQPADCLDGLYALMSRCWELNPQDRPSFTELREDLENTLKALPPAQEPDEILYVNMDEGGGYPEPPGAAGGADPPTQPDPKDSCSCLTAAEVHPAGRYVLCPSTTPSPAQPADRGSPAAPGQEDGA
The test is described as follows: Biochemical potency, HTRF KinEASE-TK kinase assay. The conditions noted are these: 5 nM AXL, 700 μM ATP. Also on record: purchased Invitrogen. Summed up:
(§1)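 HTRF 665/620 readout after a 2 h RT kinase reaction (final 700 μM ATP, 800 nM biotinylated TK substrate, 1% DMSO, HEPES pH 7.4 buffer) gave percent activity. Final enzyme was 5 nM for AXL, 1 nM for TYRO3 or MER, each preincubated 1 h with compound.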
For orientation: Time-resolved FRET reads energy transfer from a long-lived donor to a nearby acceptor.

For a further test, the target named is T2, recombinant human TYRO3 (Homo sapiens, UniProt Q06418).
T2 construct: purchased Invitrogen
T2 sequence (Q06418 41-890): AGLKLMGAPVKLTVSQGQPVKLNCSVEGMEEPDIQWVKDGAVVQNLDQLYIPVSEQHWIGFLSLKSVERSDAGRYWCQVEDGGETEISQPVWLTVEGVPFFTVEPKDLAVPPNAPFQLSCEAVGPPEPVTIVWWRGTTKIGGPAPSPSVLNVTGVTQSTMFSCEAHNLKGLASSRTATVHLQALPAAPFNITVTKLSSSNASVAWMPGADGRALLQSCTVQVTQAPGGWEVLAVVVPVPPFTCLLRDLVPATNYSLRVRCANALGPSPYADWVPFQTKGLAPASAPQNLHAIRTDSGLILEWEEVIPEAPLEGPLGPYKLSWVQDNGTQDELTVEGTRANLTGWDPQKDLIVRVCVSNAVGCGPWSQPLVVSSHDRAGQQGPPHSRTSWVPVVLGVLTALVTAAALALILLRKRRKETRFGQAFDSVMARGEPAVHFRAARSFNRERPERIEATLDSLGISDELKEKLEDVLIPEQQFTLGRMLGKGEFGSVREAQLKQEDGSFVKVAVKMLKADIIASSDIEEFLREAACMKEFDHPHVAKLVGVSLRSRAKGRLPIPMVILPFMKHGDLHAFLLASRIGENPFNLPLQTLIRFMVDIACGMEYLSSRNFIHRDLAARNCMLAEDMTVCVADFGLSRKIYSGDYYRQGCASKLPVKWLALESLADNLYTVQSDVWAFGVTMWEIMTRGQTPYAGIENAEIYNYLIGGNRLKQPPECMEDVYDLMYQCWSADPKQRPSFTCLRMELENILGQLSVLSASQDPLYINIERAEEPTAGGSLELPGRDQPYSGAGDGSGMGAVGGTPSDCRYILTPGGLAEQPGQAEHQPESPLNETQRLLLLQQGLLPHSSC
The test is described as follows: Biochemical potency, HTRF KinEASE-TK kinase assay. The conditions noted are these: 1 nM TYRO3, 700 μM ATP. In outline: as §1

The results in this text go back to patent US12195482B1 (Arcus Biosciences, Inc., priority 2022, dated 2025).

By IC50 is commonly meant the concentration that inhibits the measured activity by half. With `Cc1ccnnc1-c1ccc(-c2n[nH]c3ncc(-c4ccc5c(c4)CC[C@@H](N4C6COCC4C6)CC5)cc23)cc1` [Example 176, 6-[(7S)-2-{3-[4-(4-Methylpyridazin-3-yl)phenyl]-1H-pyrazolo[3,4-b]pyridin-5-yl}-6,7,8,9-tetrahydro-5H-benzo[7]annulen-7-yl]-3-oxa-6-azabicyclo[3.1.1]heptane], the IC50 at Axl and on recombinant human TYRO3 was less than 100 nM throughout.
In the case of `COC[C@H]1CCN([C@H]2CCc3ccc(-c4cnc5[nH]nc(-c6ccc(-c7ncccc7C)cc6)c5c4)cc3CC2)C1` [Example 132, 2-(4-{5-[(7S)-7-[(3S)-3-(Methoxymethyl)pyrrolidin-1-yl]-6,7,8,9-tetrahydro-5H-benzo[7]annulen-2-yl]-1H-pyrazolo[3,4-b]pyridin-3-yl}phenyl)-3-methylpyridine], the 50% inhibitory concentration (IC50) against Axl and on recombinant human TYRO3 was less than 100 nM each time.
For the compound `c1ccc(-c2ccc(-c3c[nH]c4ncc(-c5ccc6c(c5)CC[C@@H](N[C@H]5CCCOC5)CC6)cc34)cc2)nc1` [Example 32, (3S)—N-[(7S)-3-[3-(4-Pyridin-2-ylphenyl)-1H-pyrrolo[2,3-b]pyridin-5-yl]-6,7,8,9-tetrahydro-5H-benzo[7]annulen-7-yl]oxan-3-amine], the values for the IC50 against Axl and on recombinant human TYRO3 were less than 100 nM and 100 to 1000 nM, respectively.
In the case of `CC(C)(O)c1cccnc1-c1ccc(-c2c[nH]c3ncc(-c4ccc5c(c4)CC[C@@H](N4C6COCC4C6)CC5)cc23)cc1` [Example 95, 2-[2-(4-{5-[(7S)-7-{3-Oxa-6-azabicyclo[3.1.1]heptan-6-yl}-6,7,8,9-tetrahydro-5H-benzo[7]annulen-2-yl]-1H-pyrrolo[2,3-b]pyridin-3-yl}phenyl)pyridin-3-yl]propan-2-ol], the IC50 on Axl and on recombinant human TYRO3 was less than 100 nM throughout.
For the compound `CC(C)(O)c1cccnc1-c1ccc(-c2n[nH]c3ncc(-c4ccc5c(c4)CC[C@@H](N4C6COCC4C6)CC5)cc23)nc1` [Example 100, 2-(6′-{5-[(7S)-7-{3-Oxa-6-azabicyclo[3.1.1]heptan-6-yl}-6,7,8,9-tetrahydro-5H-benzo[7]annulen-2-yl]-1H-pyrazolo[3,4-b]pyridin-3-yl}-[2,3′-bipyridin]-3-yl)propan-2-ol], the IC50 is less than 100 nM against Axl and 100 to 1000 nM at recombinant human TYRO3.
The corresponding values for `OC1(c2cccnc2-c2ccc(-c3c[nH]c4ncc(-c5ccc6c(c5)CC[C@@H](N5C7COCC5C7)CC6)cc34)cc2)CCC1` [Example 22, 1-[2-[4-[5-[(7S)-7-(3-Oxa-6-azabicyclo[3.1.1]heptan-6-yl)-6,7,8,9-tetrahydro-5H-benzo[7]annulen-3-yl]-1H-pyrrolo[2,3-b]pyridin-3-yl]phenyl]pyridin-3-yl]cyclobutan-1-ol] are less than 100 nM and less than 100 nM.
On to `Cc1ccc(-c2ccc(-c3n[nH]c4ncc(-c5ccc6c(c5)CC[C@@H](N5C7COCC5C7)CC6)cc34)cc2)nc1` [Example 115, 6-[(7S)-2-{3-[4-(5-Methylpyridin-2-yl)phenyl]-1H-pyrazolo[3,4-b]pyridin-5-yl}-6,7,8,9-tetrahydro-5H-benzo[7]annulen-7-yl]-3-oxa-6-azabicyclo[3.1.1]heptane], for which the IC50 on Axl was less than 100 nM; on recombinant human TYRO3, more than 1000 nM.
For `Cc1cccnc1-c1ccc(-c2c[nH]c3ncc(-c4ccc5c(c4)CC[C@@](C)(N4CCC[C@H]4C)CC5)cc23)cc1` [Example 172, 3-Methyl-2-(4-{5-[(7S)-7-methyl-7-[(2R)-2-methylpyrrolidin-1-yl]-6,7,8,9-tetrahydro-5H-benzo[7]annulen-2-yl]-1H-pyrrolo[2,3-b]pyridin-3-yl}phenyl)pyridine], the IC50 on Axl and at recombinant human TYRO3 was less than 100 nM in each case.
Consider `Cn1nccc1-c1ccc(-c2n[nH]c3ncc(-c4ccc5c(c4)CC[C@@H](N4C6COCC4C6)CC5)cc23)cc1` [Example 109, 6-[(7S)-2-{3-[4-(1-Methyl-1H-pyrazol-5-yl)phenyl]-1H-pyrazolo[3,4-b]pyridin-5-yl}-6,7,8,9-tetrahydro-5H-benzo[7]annulen-7-yl]-3-oxa-6-azabicyclo[3.1.1]heptane], for which the IC50 is less than 100 nM against Axl and 100 to 1000 nM on recombinant human TYRO3.
As to `CC(C)(C#N)c1cccnc1-c1ccc(-c2c[nH]c3ncc(-c4ccc5c(c4)CC[C@@H](N4C6COCC4C6)CC5)cc23)cc1` [Example 21, 2-Methyl-2-[2-[4-[5-[(7S)-7-(3-oxa-6-azabicyclo[3.1.1]heptan-6-yl)-6,7,8,9-tetrahydro-5H-benzo[7]annulen-3-yl]-1H-pyrrolo[2,3-b]pyridin-3-yl]phenyl]pyridin-3-yl]propanenitrile], the IC50 against Axl and on recombinant human TYRO3 was less than 100 nM each time.
`Cc1cccc(-c2ccc(-c3n[nH]c4ncc(-c5ccc6c(c5)CC[C@@H](N5C7COCC5C7)CC6)cc34)cc2)n1` [Example 116, 6-[(7S)-2-{3-[4-(6-Methylpyridin-2-yl)phenyl]-1H-pyrazolo[3,4-b]pyridin-5-yl}-6,7,8,9-tetrahydro-5H-benzo[7]annulen-7-yl]-3-oxa-6-azabicyclo[3.1.1]heptane]: the values for the IC50 at Axl and on recombinant human TYRO3 were less than 100 nM and 100 to 1000 nM, respectively.
The corresponding values for `Cc1cccnc1-c1ccc(-c2c[nH]c3ncc(-c4ccc5c(c4)CC[C@@H](N4C[C@@H]6C[C@H]4CO6)CC5)cc23)cc1` [Example 187, (4S)-5-[(7S)-2-{3-[4-(3-Methylpyridin-2-yl)phenyl]-1H-pyrrolo[2,3-b]pyridin-5-yl}-6,7,8,9-tetrahydro-5H-benzo[7]annulen-7-yl]-2-oxa-5-azabicyclo[2.2.1]heptane] are less than 100 nM and less than 100 nM.
For `C[C@@H]1CCCN1[C@@]1(C)CCc2ccc(-c3cnc4[nH]nc(-c5ccc(-c6ncnn6C)cc5)c4c3)cc2CC1` [Example 112, 1-Methyl-5-(4-{5-[(7S)-7-methyl-7-[(2R)-2-methylpyrrolidin-1-yl]-6,7,8,9-tetrahydro-5H-benzo[7]annulen-2-yl]-1H-pyrazolo[3,4-b]pyridin-3-yl}phenyl)-1H-1,2,4-triazole], in that order: less than 100 nM and less than 100 nM.
The corresponding values for `CN(C)C(=O)c1cccnc1-c1ccc(-c2c[nH]c3ncc(-c4ccc5c(c4)CC[C@@H](N4C6COCC4C6)CC5)cc23)cc1` [Example 165, N,N-Dimethyl-2-(4-{5-[(7S)-7-{3-oxa-6-azabicyclo[3.1.1]heptan-6-yl}-6,7,8,9-tetrahydro-5H-benzo[7]annulen-2-yl]-1H-pyrrolo[2,3-b]pyridin-3-yl}phenyl)pyridine-3-carboxamide] are less than 100 nM and less than 100 nM.
`c1ccc(-c2ccc(-c3c[nH]c4ncc(-c5ccc6c(c5)CC[C@@H](N5C7COCC5C7)CC6)cc34)cc2)nc1` [Example 155, 6-[(7S)-2-{3-[4-(Pyridin-2-yl)phenyl]-1H-pyrrolo[2,3-b]pyridin-5-yl}-6,7,8,9-tetrahydro-5H-benzo[7]annulen-7-yl]-3-oxa-6-azabicyclo[3.1.1]heptane]: the IC50 was less than 100 nM against Axl and 100 to 1000 nM at recombinant human TYRO3.
Take `Cc1cccnc1-c1ccc(-c2n[nH]c3ncc(-c4ccc5c(c4)CC[C@@](C)(N4CCC[C@H]4C)CC5)cc23)nc1` [Example 105, 3-Methyl-6′-{5-[(7S)-7-methyl-7-[(2R)-2-methylpyrrolidin-1-yl]-6,7,8,9-tetrahydro-5H-benzo[7]annulen-2-yl]-1H-pyrazolo[3,4-b]pyridin-3-yl}-2,3′-bipyridine]: the IC50 on Axl and at recombinant human TYRO3 was less than 100 nM throughout.
